Assay results taken from article PMC12057359, “Inhibitory effect of copper chelators on the budding in Candida albicans” (Antimicrobial Agents and Chemotherapy, 2025).
pIC50: −log10 of the molar value. Counter-ions that a name gives are not always drawn. Like-named read-outs stand apart in the source and are kept apart here.

How the values were obtained:
C. albicans JCM1542 [1] = experiment: iHOPE antimicrobial microdilution assay (turbidity OD600); assay type: cell-based, Candida albicans; settings: for pIC50: read-out: IC50 against C. albicans JCM1542; for antifungal activity / inhibition of budding against C. albicans (in words): C. albicans JCM1542
[2] = iHOPE in vitro cytotoxicity assessment (Cell Count Reagent SF); assay type: cell-based, human; settings: human
Protocol: (§1) The method for in vitro cytotoxicity assessment using Cell Count Reagent SF (Nacalai Tesque) has been described previously ([15]). […] Test compounds were added to the culture medium, and then the plates were incubated at 28°C for 24 h.

C. auris Ci6684 = experiment: iHOPE antimicrobial microdilution assay (turbidity OD600); assay type: cell-based, Candida auris; settings: Candidozyma auris, CI6684; MOPS-RPMI medium, 24 h; SD in parentheses, n = 3; read-out: IC50 against C. auris Ci6684
C. auris VPCI673 = experiment: as above; assay type: cell-based, Candida auris; settings: Candidozyma auris, VPCI673; MOPS-RPMI medium, 24 h; SD in parentheses, n = 3; read-out: IC50 against C. auris VPCI673
C. glabrata JCM3761 = experiment: as above; assay type: cell-based, Candida glabrata; settings: Nakaseomyces glabratus, JCM3761; MOPS-RPMI medium, 24 h; SD in parentheses, n = 3; read-out: IC50 against C. glabrata JCM3761
C. tropicalis JCM1541 = experiment: as above; assay type: cell-based; settings: Candida tropicalis, JCM1541; MOPS-RPMI medium, 24 h; SD in parentheses, n = 3; read-out: IC50 against C. tropicalis JCM1541
E. coli HO-141 = experiment: iHOPE antimicrobial microdilution assay; assay type: cell-based, Escherichia coli; settings: SD in parentheses, n = 3, read-out: IC50 against E. coli HO-141
P. oryzae Kita-1 = experiment: microbe, parasite or virus in culture; assay type: cell-based, Pyricularia oryzae
A. fumigatus Af293 = experiment: iHOPE antimicrobial microdilution assay; assay type: cell-based, Aspergillus fumigatus; settings: SD in parentheses, n = 3, read-out: IC50 against A. fumigatus Af293
C. albicans JCM1542 [3] = assay type: cell-based, Candida albicans
S. aureus 209P = experiment: iHOPE antimicrobial microdilution assay; assay type: cell-based, Staphylococcus aureus; settings: SD in parentheses, n = 3, read-out: IC50 against S. aureus 209P
HL-60 RCB0041 = experiment: iHOPE in vitro cytotoxicity assessment (Cell Count Reagent SF); assay type: cell-based, human
Protocol: as §1

[4] = SD in parentheses, n = 3, read-out: IC50 against HL-60 RCB0041 (cytotoxicity)
[5] = Candida albicans, JCM1542, MOPS-RPMI medium, 28°C, 24 h, OD600, standard deviation in parentheses, n = 3
[6] = Pyricularia oryzae, KITA1, read-out: IC50 against P. oryzae Kita-1

C/C=C(\C)[C@H](O)[C@H](C)/C=C(C)/C=C/C/C(C)=C/Cc1nc(OC)c(OC)c(O)c1C [Piericidin A, piericidin A]
pIC50 (C. albicans JCM1542 [1]; Candida albicans, JCM1542, 24 h): 4.92

[C-]#[N+][C@@H](C)CC(=O)Nc1cccc(NC(=O)C[C@H](C)[N+]#[C-])c1 [14b]
pIC50 [2, 4]: < 4.52
pIC50 (C. albicans JCM1542 [1]; [5]): 7.70

[C-]#[N+][C@H](C)CC(=O)Nc1cccc(NC(=O)C[C@@H](C)[N+]#[C-])c1 [14a]
pIC50 [2, 4]: < 4.52
pIC50 (C. albicans JCM1542 [1]; [5]): 7.27

[C-]#[N+][C@H](C)CC(=O)NCc1ccc(N)cc1 [8a]
pIC50 [2, 4]: < 4.52
antifungal activity / inhibition of budding against C. albicans (in words) (C. albicans JCM1542 [1]): weak antifungal activity and inhibition of budding
pIC50 (C. albicans JCM1542 [1]; [5]): 6.11

[C-]#[N+][C@@H](C)CC(=O)N[C@H]1CC[C@@H](NC(=O)C[C@H](C)[N+]#[C-])CC1 [15b]
pIC50 [2, 4]: < 4.52
pIC50 (C. auris Ci6684): 7.21
pIC50 (C. auris VPCI673): 7.47
pIC50 (C. albicans JCM1542 [1]; [5]): 7.72
pIC50 (C. glabrata JCM3761): 8.00
pIC50 (C. tropicalis JCM1541): 7.59

OC(Cn1cncn1)(Cn1cncn1)c1ccc(F)cc1F [Fluconazole, fluconazole]
pIC50 (E. coli HO-141; Escherichia coli, HO141): < 4.52
pIC50 (P. oryzae Kita-1; [6]): < 4.52
pIC50 (A. fumigatus Af293; Aspergillus fumigatus, AF293): < 4.52
morphological change induced in C. albicans (C. albicans JCM1542 [3]): yeast-rich morphology
pIC50 ([2]; HL-60 RCB0041 cells (promyelocytic leukemia cell line), SD in parentheses, n = 3, read-out: IC50 against HL-60 RCB0041 (cytotoxicity)): < 4.52
pIC50 (S. aureus 209P; Staphylococcus aureus, 209P): < 4.52
pIC50 (C. auris Ci6684): < 4.52
pIC50 (C. auris VPCI673): < 4.52
pIC50 (C. albicans JCM1542 [1]; [5]): 6.41
pIC50 (C. glabrata JCM3761): 6.16
pIC50 (C. tropicalis JCM1541): 6.40

[Cl][Cu][Cl] [Cu^2+, copper chloride (II)]
pIC50 (E. coli HO-141): < 4.52
pIC50 (P. oryzae Kita-1; SD in parentheses, n = 3, read-out: IC50 against P. oryzae Kita-1): < 4.52
pIC50 (A. fumigatus Af293): < 4.52
concentration leading to earlier budding of C. albicans (C. albicans JCM1542 [3]): ≥ 1 µM
pIC50 (HL-60 RCB0041): < 4.52
pIC50 (S. aureus 209P): < 4.52
pIC50 (C. albicans JCM1542 [1]; MOPS-RPMI medium, 28°C, 24 h, OD600, standard deviation in parentheses, n = 3): < 4.52

[C-]#[N+][C@H](C)CC(=O)N[C@H]1CC[C@H](NC(=O)C[C@@H](C)[N+]#[C-])CC1 [16a]
pIC50 [2, 4]: < 4.52
pIC50 (C. albicans JCM1542 [1]; [5]): 6.21

C/C=C/C(=O)NCc1ccc(N)cc1 [compound 9]
pIC50 [2, 4]: < 4.52
antifungal activity / inhibition of budding against C. albicans (in words) (C. albicans JCM1542 [1]): did not mediate any changes in either the survival rate or morphology
pIC50 (C. albicans JCM1542 [1]; [5]): < 4.52

[C-]#[N+][C@H](C)CC(=O)N[C@H]1CC[C@@H](NC(=O)C[C@@H](C)[N+]#[C-])CC1 [15a]
pIC50 [2, 4]: < 4.52
pIC50 (C. auris Ci6684): 7.31
pIC50 (C. auris VPCI673): 7.19
pIC50 (C. albicans JCM1542 [1]; [5]): 7.82
pIC50 (C. glabrata JCM3761): 8.09
pIC50 (C. tropicalis JCM1541): 7.49

NCCNCCNCCN [Trientine, trientine hydrochloride]
pIC50 (E. coli HO-141; Escherichia coli, HO141): < 4.00
pIC50 (P. oryzae Kita-1; [6]): < 4.00
pIC50 (A. fumigatus Af293; Aspergillus fumigatus, AF293): 5.09
morphological change induced in C. albicans (C. albicans JCM1542 [3]): morphological changes similar to those observed with SF2768
pIC50 [2]: < 4.00
pIC50 (S. aureus 209P; Staphylococcus aureus, 209P): < 4.00
pIC50 (C. auris Ci6684): < 4.00
pIC50 (C. auris VPCI673): < 4.00
pIC50 (C. albicans JCM1542 [1]; [5]): 6.24
pIC50 (C. glabrata JCM3761): 6.92
pIC50 (C. tropicalis JCM1541): 4.74

[C-]#[N+][C@H](C)CC(=O)NCCc1ccc(NC(=O)C[C@@H](C)[N+]#[C-])cc1 [12a]
pIC50 [2, 4]: < 4.52
pIC50 (C. auris Ci6684): 7.24
pIC50 (C. auris VPCI673): 6.74
pIC50 (C. albicans JCM1542 [1]; [5]): 7.92
pIC50 (C. glabrata JCM3761): 8.00
pIC50 (C. tropicalis JCM1541): 7.89

[C-]#[N+][C@@H](C)CC(=O)Nc1ccc(NC(=O)C[C@H](C)[N+]#[C-])cc1 [13b]
pIC50 [2, 4]: < 4.52
pIC50 (C. albicans JCM1542 [1]; [5]): 7.47

Nc1nc(=O)[nH]cc1F [5-FC, 5-fluorocytosine]
pIC50 (E. coli HO-141; Escherichia coli, HO141): < 4.52
pIC50 (P. oryzae Kita-1; [6]): < 4.52
pIC50 (A. fumigatus Af293; Aspergillus fumigatus, AF293): 4.82
morphological change induced in C. albicans (C. albicans JCM1542 [3]; C. albicans JCM1542, MOPS-RPMI medium, 24 h): hyphal-rich morphology
pIC50 [2]: < 4.52
pIC50 (S. aureus 209P; Staphylococcus aureus, 209P): < 4.52
pIC50 (C. auris Ci6684): 6.43
pIC50 (C. auris VPCI673): 6.57
pIC50 (C. albicans JCM1542 [1]; [5]): 6.72
pIC50 (C. glabrata JCM3761): 7.09
pIC50 (C. tropicalis JCM1541): 6.96
